Source: patent US7291622B2, “Medical uses of carbamate-substituted pyrazolo-pyridine derivatives” (Bayer Aktiengesellschaft, priority 2000, dated 2007)

Tested on: rabbit aorta rings
Assay: Vasorelaxant effect in vitro (phenylephrine-contracted rabbit aorta rings)
Conditions: Oryctolagus cuniculus; rabbit aortic rings, phenylephrine contraction; concentration reducing height of control contraction by 50%
Experimental: Vasorelaxant Effect In Vitro
Rabbits are stunned by a blow to the back of the neck and are exsanguinated. The aorta is removed, freed of adherent tissue and divided into rings 1.5 mm wide, which are put singly under tension in 5 ml organ baths containing carbogen-gassed Krebs-Henseleit solution at 37° C. with the following composition (mM): NaCl: 119; KCl: 4.8; CaCl2×2H2O: 1; MgSO4×7H2O: 1.4; KH2PO4: 1.2; NaHCO3: 25; glucose: 10. The force of contraction is detected with Statham UC2 cells, amplified and digitized via A/D converters (DAS-1802 HC, Keithley Instruments Munich) and recorded in parallel on chart recorders. A contraction is generated by adding phenylephrine to the bath cumulatively in increasing concentration. After several control cycles, the substance to be investigated is investigated in each further run in increasing dosage in each case, and the height of the contraction is compared with the height of the contraction reached in the last preceding run. The concentration necessary to reduce the height of the control value by 50% (IC50) is calculated from this. The standard application volume is 5 μl, and the DMSO content in the bath solution corresponds to 0.1%.

| SMILES | IC50 |
| --- | --- |
| CN(C)C(=S)Oc1cnc(-c2nn(Cc3ccccc3F)c3ncccc23)nc1N [Example 19] | 420 nM |
| Nc1nc(-c2nn(Cc3ccccc3F)c3ncccc23)ncc1CC(=O)N1CCOCC1 [Example 2] | 650 nM |
| C=CCN(CC=C)C(=O)Oc1cnc(-c2nn(Cc3ccccc3F)c3ncccc23)nc1N [Example 11] | 520 nM |
| CCOC(=O)CN(C(=O)Oc1cnc(-c2nn(Cc3ccccc3F)c3ncccc23)nc1N)C(C)COC (centres unmarked) [Example 15] | 320 nM |
| CCN(CC)C(=O)Nc1nc(-c2nn(Cc3ccccc3F)c3ncccc23)ncc1OC(=O)N(CC)CC [Example 26, 4-{[(Diethylamino)carbonyl]amino}-2-[1-(2-fluorobenzyl)-1H-pyrazolo[3,4-b]pyridin-3-yl]-5-pyrimidinyl diethylcarbamate] | 340 nM |
